From ChEMBL document CHEMBL5532646, “Discovery of 4-(N-dithiobenzyl piperazine)-1,8-naphthalimide as a potent multi-target antitumor agent with good efficacy, limited toxicity, and low resistance” (Eur J Med Chem, 2024)
Calls of active or inactive are those of the source. The calls are words filed in the database; no cut-off is given here.

Key:
[1] = test system: SK-OV-3; test: Antiproliferative activity against human SK-OV-3 cells xenografted in nude mouse model assessed as tumor inhibition rate at 15 mg/kg, ip administered once every two days for 21 days relative to control; format: functional; conditions: SK-OV-3, 504 h, time 21 day
[2] = Toxicity in nude mouse model xenografted with human T24 cells assessed as pathological change in spleen at 5 to 15 mg/kg, ip administered once every two days for 21 days; format: organism-based, T-24; conditions: in vivo, 504 h, dose 5-15 mg/kg, time 21 day
[3] = test system: HepG2; test: Antiproliferative activity against human HepG2 cells xenografted in nude mouse model assessed as tumor inhibition rate at 5 mg/kg, ip administered once every two days for 21 days relative to control; format: functional; conditions: HepG2, 504 h, time 21 day
[4] = Toxicity in nude mouse model xenografted with human T24 cells assessed as pathological change in lung at 5 to 15 mg/kg, ip administered once every two days for 21 days; format: organism-based, T-24; conditions: in vivo, 504 h, dose 5-15 mg/kg, time 21 day
[5] = test system: SK-OV-3; test: Antiproliferative activity against human SK-OV-3 cells incubated for 48 hrs by MTT assay; format: functional, cell-based; conditions: SK-OV-3, 48 h
[6] = Toxicity in nude mouse model xenografted with human SK-OV-3 cells assessed as pathological change in spleen at 15 mg/kg, ip administered once every two days for 21 days; format: organism-based; conditions: in vivo, 504 h, time 21 day
[7] = Toxicity in nude mouse model xenografted with human HepG2 cells assessed as pathological change in lung at 5 to 15 mg/kg, ip administered once every two days for 21 days; format: organism-based; conditions: in vivo, 504 h, dose 5-15 mg/kg, time 21 day
[8] = Toxicity in nude mouse model xenografted with human HepG2 cells assessed as pathological change in heart at 5 to 15 mg/kg, ip administered once every two days for 21 days; format: organism-based; conditions: in vivo, 504 h, dose 5-15 mg/kg, time 21 day
[9] = Toxicity in nude mouse model xenografted with human HepG2 cells assessed as pathological change in spleen at 5 to 15 mg/kg, ip administered once every two days for 21 days; format: organism-based; conditions: in vivo, 504 h, dose 5-15 mg/kg, time 21 day
[10] = Toxicity in nude mouse model xenografted with human SK-OV-3 cells assessed as pathological change in lung at 15 mg/kg, ip administered once every two days for 21 days; format: organism-based; conditions: in vivo, 504 h, time 21 day
[11] = test system: A549; test: Antiproliferative activity against human A549 cells incubated for 48 hrs by MTT assay; format: functional, cell-based
[12] = test system: T-24; test: Antiproliferative activity against human T24 cells incubated for 48 hrs by MTT assay; format: functional, cell-based; conditions: T-24, 48 h
[13] = Toxicity in nude mouse model xenografted with human SK-OV-3 cells assessed as pathological change in liver at 15 mg/kg, ip administered once every two days for 21 days; format: organism-based; conditions: in vivo, 504 h, time 21 day
[14] = Toxicity in nude mouse model xenografted with human T24 cells assessed as pathological change in heart at 5 to 15 mg/kg, ip administered once every two days for 21 days; format: organism-based, T-24; conditions: in vivo, 504 h, dose 5-15 mg/kg, time 21 day
[15] = test system: HepG2; test: Antiproliferative activity against human HepG2 cells incubated for 48 hrs by MTT assay; format: functional, cell-based; conditions: HepG2, 48 h
[16] = Toxicity in nude mouse model xenografted with human T24 cells assessed as pathological change in liver at 5 to 15 mg/kg, ip administered once every two days for 21 days; format: organism-based, T-24; conditions: in vivo, 504 h, dose 5-15 mg/kg, time 21 day
[17] = test system: SK-OV-3; test: Antiproliferative activity against human SK-OV-3 cells xenografted in nude mouse model assessed as tumor inhibition rate administered intraperitoneally once every two days for 21 days; format: functional, cell-based; conditions: dose 15.0 mg/kg, route ip, time 21.0 day
[18] = Toxicity in nude mouse model xenografted with human SK-OV-3 cells assessed as pathological change in heart at 15 mg/kg, ip administered once every two days for 21 days; format: organism-based; conditions: in vivo, 504 h, time 21 day
[19] = test system: T-24; test: Antiproliferative activity against human T24 cells xenografted in nude mouse model assessed as tumor inhibition rate at 15 mg/kg, ip administered once every two days for 21 days relative to control; format: functional; conditions: T-24, 504 h, time 21 day
[20] = test system: HepG2; test: Antiproliferative activity against human HepG2 cells xenografted in nude mouse model assessed as tumor inhibition rate at 15 mg/kg, ip administered once every two days for 21 days relative to control; format: functional; conditions: HepG2, 504 h, time 21 day
[21] = test system: MGC-803; test: Antiproliferative activity against human MGC-803 cells incubated for 48 hrs by MTT assay; format: functional, cell-based; conditions: MGC-803, 48 h
[22] = test system: T-24; test: Antiproliferative activity against human T24 cells xenografted in nude mouse model assessed as tumor inhibition rate at 5 mg/kg, ip administered once every two days for 21 days relative to control; format: functional; conditions: T-24, 504 h, time 21 day
[23] = Toxicity in nude mouse model xenografted with human HepG2 cells assessed as pathological change in liver at 5 to 15 mg/kg, ip administered once every two days for 21 days; format: organism-based; conditions: in vivo, 504 h, dose 5-15 mg/kg, time 21 day
[24] = test system: A549/CDDP; test: Antiproliferative activity against human A549/DDP cells incubated for 48 hrs by MTT assay; format: functional, cell-based
[25] = test system: SK-OV-3; test: Antiproliferative activity against human SK-OV-3 cells xenografted in nude mouse model assessed as tumor inhibition rate at 5 mg/kg, ip administered once every two days for 21 days relative to control; format: functional; conditions: SK-OV-3, 504 h, time 21 day

IC50 [5] [nM]	IC50 [15] [nM]	IC50 [21] [nM]	SMILES	Activity [2]	inhibition in vivo at 5 mg/kg [3] [%]	Activity [4]	Activity [7]	Activity [8]	Activity [9]	Activity [11]	IC50 [12] [nM]	Activity [14]	Activity [16]	inhibition in vivo at 15 mg/kg [19] [%]	inhibition in vivo at 15 mg/kg [20] [%]	inhibition in vivo at 5 mg/kg [22] [%]	Activity [23]	Activity [24]	also measured
1070	1540	3040	CNCCCN1C(=O)c2cccc3c(N4CCN(C(=S)SCc5ccccc5)CC4)ccc(c23)C1=O	Non-Toxic	53	Non-Toxic	Non-Toxic	Non-Toxic	Non-Toxic	Active	590	Non-Toxic	Non-Toxic	57.1	58.8	55.1	Non-Toxic	Active	inhibition in vivo at 15 mg/kg [1]: 53.1%; Activity [6]: Non-Toxic; Activity [10]: Non-Toxic; Activity [13]: Non-Toxic; inhibition [17]: Dose-Dependent Effect; Activity [18]: Non-Toxic
2010	4780	5730	CN(C)CCN1C(=O)c2cccc3c(N4CCN(C(=O)c5ccccc5)CC4)ccc(c23)C1=O	Non-Toxic	51.5	Non-Toxic	Non-Toxic	Non-Toxic	Non-Toxic	Active	2080	Non-Toxic	Non-Toxic	64.5	54.5	55	Non-Toxic	Active	–

SMILES	IC50 [5] [nM]	IC50 [15] [nM]	IC50 [21] [nM]	Activity [2]	inhibition in vivo at 5 mg/kg [3] [%]	Activity [4]	Activity [7]	Activity [8]	Activity [9]	Activity [11]	IC50 [12] [nM]	Activity [14]	Activity [16]	inhibition in vivo at 15 mg/kg [19] [%]	inhibition in vivo at 15 mg/kg [20] [%]	inhibition in vivo at 5 mg/kg [22] [%]	Activity [23]	Activity [24]	also measured
CN(C)CCN1C(=O)c2cccc3cc(N)cc(c23)C1=O [AMONAFIDE]	–	7940	–	–	–	–	–	–	–	–	–	–	–	–	62	70.6	–	–	inhibition in vivo at 5 mg/kg [25]: 62.1%
